Among the data in BindingDB's records for doi:10.7270/Q2TX3CTT (Broad Institute, 2010) are EC50 values, retold here.

Where a name gives a salt, the structure may show the parent alone.

In the assay the target is Glycogen synthase kinase-3 beta (Homo sapiens, UniProt P49841). The experiment in a line: GSK3beta kinase inhibitor potency, dose response, biochemical, luminescence, cell-free homogeneous, retest (AID 434954).
Chain of Glycogen synthase kinase-3 beta (P49841 whole entry): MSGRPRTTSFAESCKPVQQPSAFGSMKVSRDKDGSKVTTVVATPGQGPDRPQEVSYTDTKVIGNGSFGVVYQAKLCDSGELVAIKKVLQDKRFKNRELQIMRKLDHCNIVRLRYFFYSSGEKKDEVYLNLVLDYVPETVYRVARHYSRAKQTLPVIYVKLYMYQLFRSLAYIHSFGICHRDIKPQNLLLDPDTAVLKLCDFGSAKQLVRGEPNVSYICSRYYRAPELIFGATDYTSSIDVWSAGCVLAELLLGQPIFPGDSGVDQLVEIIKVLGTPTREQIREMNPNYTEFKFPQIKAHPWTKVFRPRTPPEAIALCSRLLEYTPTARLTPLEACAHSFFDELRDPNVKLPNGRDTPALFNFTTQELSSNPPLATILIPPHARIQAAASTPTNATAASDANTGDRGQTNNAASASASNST
For `O=C1N=C(NS(=O)(=O)Cc2ccccc2)S/C1=C/c1ccc2c(c1)OCO2` [N-[5-[1-Benzo[1,3]dioxol-5-yl-meth-(E)-ylidene]-4-oxo-thiazolidin-(2E)-ylidene]-C-phenyl-methanesulfon amide], the midpoint of the response, the EC50, lay at 18.8 µM.

As for `O=C(Nc1ccccn1)Nc1ccccc1Cl`, the EC50 is greater than 300 µM.

For `Nc1nc(NCCO)nc(NC2CCCCC2)c1[N+](=O)[O-]` [2-[[4-amino-6-(cyclohexylamino)-5-nitro-2-pyrimidinyl]amino]ethanol], the EC50 amounted to 1.36 µM. In other words, the single-digit micromolar range.

Take `CC(=O)Nc1cccc(Nc2nc(-c3ccccc3)nc3ccccc23)c1` [SMR000384461]: the EC50 was greater than 300 µM.

The compound `COc1cccc(/C=C2/Sc3ccc(C(=O)NCCN4CCCCCC4)cc3NC2=O)c1` [MLS001030753] came in with an EC50 of 94.6 µM.

`O=C(NCCO)Nc1ccc2nsnc2c1` [MLS000708760]: the EC50 was greater than 300 µM.

Take `O=C(O)Cn1cc(CN=Nc2ccc([N+](=O)[O-])cn2)c2ccccc21` [SMR000540193]: the EC50 was found to be 8.24 µM.

With `O=C(NN=Cc1ccc(Br)s1)c1cccnc1`, the EC50 is greater than 300 µM.

As for `Oc1ccc(CN=Nc2ncc(Br)cn2)c(O)c1`, a half-maximal effect (EC50) was put at 12.3 µM. That is a double-digit micromolar value.

In turn, `Nc1nc(NCCOCCO)nc(Nc2cccc(F)c2)c1[N+](=O)[O-]` [2-[2-[[4-azanyl-6-[(3-fluorophenyl)amino]-5-nitro-pyrimidin-2-yl]amino]ethoxy]ethanol] had an EC50 of 10.7 µM.

Regarding `Nc1nc(Nc2ccccc2F)sc1C(=O)c1ccccc1` [[4-amino-2-(2-fluoroanilino)-1,3-thiazol-5-yl]-phenylmethanone], it took 0.622 µM to reach a half-maximal effect (EC50). Against the preceding compound, the EC50 is about 17-fold lower.

The compound `OCC1(Cc2ccccc2)CCN(Cc2ccc(-c3ccco3)cc2)CC1` [[1-[[4-(2-furanyl)phenyl]methyl]-4-(phenylmethyl)-4-piperidinyl]methanol] showed an EC50 greater than 300 µM.

As for `c1ccc(Nc2nc(-c3ccncc3)nc3ccccc23)cc1`, a half-maximal effect (EC50) was put at 22 µM.

`COc1ccc(OC)c(Nc2nc(N)c([N+](=O)[O-])c(NCc3ccccc3)n2)c1` [N2-(2,5-dimethoxyphenyl)-5-nitro-N4-(phenylmethyl)pyrimidine-2,4,6-triamine] returned an EC50 greater than 300 µM.

`Cc1ccc2c(CN3CCN(Cc4ccccc4)CC3)cc(=O)oc2c1C` [SMR000543581]: the EC50 is greater than 300 µM.

As for `COc1ccc2c(c1)-c1c(ssc1=S)C(C)(C)N2S(=O)(=O)c1ccc(C)cc1` [8-methoxy-4,4-dimethyl-5-(4-methylphenyl)sulfonyl-[1,2]dithiolo[3,4-c]quinoline-1-thione], the EC50 was greater than 300 µM.

`CC1CC(=O)Nc2ccc([N+](=O)[O-])cc2N1C` (stereo not given) [SMR000207335]: the EC50 was greater than 300 µM.

In turn, `COc1cccc2c1cc1c(=O)n(CC(=O)N3CCCCCC3)nc(C)n12` [2-[2-(azepan-1-yl)-2-oxidanylidene-ethyl]-9-methoxy-4-methyl-[1,2,4]triazino[4,5-a]indol-1-one] gave an EC50 greater than 300 µM.

As to `S=C1Nc2cc(Cl)ccc2Sc2ccccc21` [MLS000698392], the EC50 was greater than 300 µM.

Compound `Oc1ccc(CN=Nc2ncnc3nc[nH]c23)cc1` [SMR000320358] came in with an EC50 greater than 300 µM.

Compound `COC(=O)CCC(=O)Oc1ccc(OC(=O)CCC(=O)OC)cc1` [4-O-[4-(4-methoxy-4-oxobutanoyl)oxyphenyl] 1-O-methyl butanedioate] gave an EC50 greater than 300 µM.

`Nc1nc(O)c(N=Nc2ccc(S(N)(=O)=O)cc2)c(=O)[nH]1` [SMR000543013] came in with an EC50 greater than 300 µM.

Consider `CN(c1ncnc(N)c1[N+](=O)[O-])C1CCS(=O)(=O)C1` (stereo not given) [SMR000347974], for which the EC50 came to 28.2 µM.

Compound `COc1ccc2nc(NC(=O)CSC3=NCCS3)sc2c1` [SMR000012424] had an EC50 greater than 300 µM.

`Cc1ccc(Nc2nc(NCCCN3CCOCC3)nc(N)c2[N+](=O)[O-])cc1` [N4-(4-methylphenyl)-N2-(3-morpholin-4-ylpropyl)-5-nitro-pyrimidine-2,4,6-triamine] returned an EC50 greater than 300 µM.

Consider `COc1ccc(C(=O)c2coc3ccc(O)c(CN4CCOCC4)c23)cc1` [MLS000115876], for which the EC50 was greater than 300 µM.

`CN1CCN(/N=C2\C(=O)Nc3ccc([N+](=O)[O-])cc32)CC1` [SMR000347605] showed an EC50 of 6.11 µM. This lies in the single-digit micromolar range.

In turn, `Cc1cc(NC(=O)CCC(=O)N(c2cccnc2)C(C(=O)NC2CCCC2)c2ccccc2F)no1` (stereo not given) [N'-[2-(cyclopentylamino)-1-(2-fluorophenyl)-2-oxoethyl]-N-(5-methyl-1,2-oxazol-3-yl)-N'-pyridin-3-ylbutanediamide] yielded an EC50 greater than 300 µM.

Regarding `CCN1CCc2c(sc(NC(=O)CN3C(=O)c4ccccc4C3=O)c2C(N)=O)C1` [2-[2-[1,3-bis(oxidanylidene)isoindol-2-yl]ethanoylamino]-6-ethyl-5,7-dihydro-4H-thieno[2,3-c]pyridine-3-carboxamide;hydrochloride], the EC50 is greater than 300 µM.

On to `COc1ccc(-c2nn(-c3ccccc3)cc2CN=Nc2ccc3ccccc3n2)cc1OC` [MLS000388895], for which the EC50 is greater than 300 µM.

The compound `NC(=O)c1cccc2c1C(=O)N(C1CCCCC1)C2` [2-cyclohexyl-3-oxoisoindoline-4-carboxamide] displayed an EC50 greater than 300 µM.

As for `CCCCn1nc(NC(=O)CC(C)C)c2cc3cc(OC)ccc3nc21` [N-(1-butyl-6-methoxy-3-pyrazolo[3,4-b]quinolinyl)-3-methylbutanamide], the EC50 is greater than 300 µM.

In the case of `CCn1c(SCc2c(F)cccc2Cl)nnc1-c1ccco1` [3-[(2-chloro-6-fluorophenyl)methylsulfanyl]-4-ethyl-5-(furan-2-yl)-1,2,4-triazole], the EC50 is greater than 300 µM.

`COC(=O)c1ccc(NC(C(=O)OC)C(C)C)c([N+](=O)[O-])c1` (stereo not given) [methyl 4-[(1-methoxy-3-methyl-1-oxidanylidene-butan-2-yl)amino]-3-nitro-benzoate]: the EC50 was greater than 300 µM.

The compound `CC(CC(=O)Nc1ccc2c(c1)OCO2)=NNC(=O)c1ccc(N)cc1` [MLS001042207] yielded an EC50 greater than 300 µM.

`O=C(O)c1ccccc1NC(=O)c1ccccc1Nc1ccccc1` [2-[(2-phenylazanylphenyl)carbonylamino]benzoic acid] gave an EC50 greater than 300 µM.

The compound `CCOC(=O)c1cnc2ccc(OC)cc2c1Nc1ccc(N2CCN(C)CC2)cc1` [6-methoxy-4-[4-(4-methyl-1-piperazinyl)anilino]-3-quinolinecarboxylic acid ethyl ester] had a 50% effective concentration (EC50) of 5.26 µM.

`O=S(=O)(/C=C/c1ccccc1)N1CCN(Cc2ccc3c(c2)OCO3)CC1`: the EC50 is greater than 300 µM.

On to `Cc1cccc(COc2ccc(/C=C3/C(=O)N(C)C(=S)N3C)cc2)c1` [MLS001164511], for which the EC50 is greater than 300 µM.

Turning to `COc1ccc(C2C3=C(CC(C)(C)CC3=O)Nc3c2c(=O)nc2nc(C)[nH]n32)cc1` (stereo not given) [SMR000035838], the EC50 is greater than 300 µM.

In turn, `Cn1c(=O)c2[nH]c(CCCC(=O)O)nc2n(Cc2ccccc2)c1=S` [4-(3-benzyl-1-methyl-6-oxo-2-sulfanylidene-7H-purin-8-yl)butanoic acid] came in with an EC50 of 5.17 µM.

`Cc1ccc(CC(=O)Nc2ncc([N+](=O)[O-])s2)cc1` [2-(4-methylphenyl)-N-(5-nitro-1,3-thiazol-2-yl)acetamide] returned an EC50 of 28.8 µM.

`CC(C)N1CCc2c(sc(NC(=O)CCS(=O)(=O)c3ccccc3)c2C(N)=O)C1` [2-[[3-(benzenesulfonyl)-1-oxopropyl]amino]-6-propan-2-yl-5,7-dihydro-4H-thieno[2,3-c]pyridine-3-carboxamide;hydrochloride] yielded an EC50 greater than 300 µM.

Compound `COc1cc(/C=N/NC(=O)c2ccc3ccccc3c2)ccc1Oc1ccc([N+](=O)[O-])cn1` [N-[[3-methoxy-4-(5-nitropyridin-2-yl)oxy-phenyl]methylideneamino]naphthalene-2-carboxamide] showed an EC50 greater than 300 µM.

For `O=C(NC1CCCCC1)C(c1ccc(F)cc1)N(Cc1ccccc1)C(=O)CN1C(=O)c2ccccc2S1(=O)=O` (stereo not given) [N-cyclohexyl-2-(4-fluorophenyl)-2-[[1-oxo-2-(1,1,3-trioxo-1,2-benzothiazol-2-yl)ethyl]-(phenylmethyl)amino]acetamide], the EC50 is greater than 300 µM.

`NCCCNc1nc(N)c([N+](=O)[O-])c(NC2CCCCC2)n1` [N2-(3-aminopropyl)-N4-cyclohexyl-5-nitropyrimidine-2,4,6-triamine] showed an EC50 of 3.06 µM.

Take `CC(C)CCn1c(CN2CCN(c3cccc(Cl)c3)CC2)nc2c1c(=O)n(C)c(=O)n2C` [SMR000017148]: the EC50 was greater than 300 µM.

Regarding `O=C(CSc1ccc2nnc(-c3cccs3)n2n1)N1CCCC1` [1-(1-pyrrolidinyl)-2-[(3-thiophen-2-yl-[1,2,4]triazolo[4,3-b]pyridazin-6-yl)thio]ethanone], the EC50 is greater than 300 µM.

As to `COc1cccc(Nc2ncc(C#N)c(N)n2)c1` [MLS000858965], it took 14.3 µM to reach a half-maximal effect (EC50).

For `CN(CCO)S(=O)(=O)c1ccc2c(c1)C(=NNC(N)=O)c1cc(S(=O)(=O)N(C)CCO)ccc1-2` [MLS000766695], the EC50 is greater than 300 µM.

As to `Clc1cccc(CNc2nc(-c3cccnc3)nc3ccccc23)c1` [N-[(3-chlorophenyl)methyl]-2-(3-pyridinyl)-4-quinazolinamine], the EC50 is greater than 300 µM.

`COc1ccc(NC(=O)c2cccc(N3C(=O)c4cccc([N+](=O)[O-])c4C3=O)c2)cc1` [MLS001125857] registered an EC50 greater than 300 µM.

In turn, `Cc1ccc(SCC(=O)N2CC(C)OC(C)C2)cc1` (stereo not given) returned an EC50 greater than 300 µM.

Compound `Oc1ccc(CNCC2COc3ccccc3O2)cc1` (stereo not given) [SMR000145120] yielded an EC50 greater than 300 µM.

As for `O=C(CSc1nnc(CNC(=O)c2c(F)cccc2F)o1)NCc1ccc(F)cc1`, the EC50 is greater than 300 µM.

Take `CCOC(=O)c1c(C)[nH]c(C)c1S(=O)(=O)NCC(=O)Nc1ccccn1` [ethyl 2,5-dimethyl-4-[[2-oxo-2-(pyridin-2-ylamino)ethyl]sulfamoyl]-1H-pyrrole-3-carboxylate]: the EC50 is greater than 300 µM.

`Cn1nnc2sc3c(c2c1=O)CCCC3` [MLS000557299] registered an EC50 of 23.3 µM. In other words, the double-digit micromolar range.

`COc1ccc(CNC(=O)CN(Cc2cccs2)C(=O)CCC(=O)Nc2ccccn2)cc1` [MLS000687650]: it took 13.4 µM to reach a half-maximal effect (EC50).

In the case of `CCN1/C(=C/C(C)=C/c2sc3ccccc3[n+]2CC)Sc2ccccc21` [SMR000354813], the midpoint of the response, the EC50, lay at 24.7 µM.

Compound `CNc1nc2c(N)ncnc2n1[C@H]1O[C@@H](CO)[C@H](O)[C@@H]1O` [(2S,3S,4R,5S)-2-[6-amino-8-(methylamino)purin-9-yl]-5-(hydroxymethyl)oxolane-3,4-diol] returned an EC50 greater than 300 µM.

In general, EC50 refers to the concentration needed to bring the measured effect to its halfway point. Low readings indicate higher potency in that assay, high ones lower potency in that assay.
